In US20150368248A1, “2-SUBSTITUTED-6-BIARYLMETHYLAMINO-9-CYCLOPENTYL-9H-PURINE DERIVATIVES, USE THEREOF AS MEDICAMENTS, AND PHARMACEUTICAL COMPOSITIONS” (UNIVERZITA PALACKEHO V OLOMOUCI, priority 2013, published 2015):
Read-outs that look alike come from different tables or passages of the source.

How the values were obtained:
HCC-1.2 (3p) = assay: MTT cytotoxicity assay (Example 30); format: cell-based; conditions: Homo sapiens, HCC-1.2, 72 h; MTT, three days after drug addition; read-out: Inhibitory concentration IC50, 3p
PLC/PRF/5 = assay: MTT cytotoxicity assay (Example 30); format: cell-based; conditions: Homo sapiens, PLC-PRF-5, 72 h; MTT, three days after drug addition; read-out: Inhibitory concentration IC50, PLC/PRF/5
HCC-1.1 (3sp) = assay: MTT cytotoxicity assay (Example 30); format: cell-based; conditions: Homo sapiens, 72 h; MTT, three days after drug addition; read-out: Inhibitory concentration IC50, 3sp
HUH-7 = assay: MTT cytotoxicity assay (Example 30); format: cell-based; conditions: Homo sapiens, Huh-7, 72 h; MTT, three days after drug addition; read-out: Inhibitory concentration IC50, HUH-7
[1] = tested on: human umbilical vein endothelial cells (HUVEC); assay: HUVEC proliferation, Calcein AM; format: cell-based; conditions: Homo sapiens, HUVEC, read-out: Inhibitory concentration for HUVEC cells - IC50
Summary of the method: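 Confluent HUVECs seeded in 96-well plates and exposed to compound for 24 or 72 h. Proliferation read by Calcein AM fluorescence.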

CDK5/p35 = biological target: T1, CDK5/p35 (Homo sapiens, UniProt Q00535); assay: Kinase inhibition assay, recombinant kinase, [γ-33P]ATP; format: biochemical; conditions: read-out: Residual kinase activity, CDK5; for remaining activity at 0.1 µM: 100 nM; for remaining activity at 1 µM: 1000 nM
T1 construct: purchased ProQinase GmbH (Freiburg, Germany)
T1 sequence (Q00535 whole entry): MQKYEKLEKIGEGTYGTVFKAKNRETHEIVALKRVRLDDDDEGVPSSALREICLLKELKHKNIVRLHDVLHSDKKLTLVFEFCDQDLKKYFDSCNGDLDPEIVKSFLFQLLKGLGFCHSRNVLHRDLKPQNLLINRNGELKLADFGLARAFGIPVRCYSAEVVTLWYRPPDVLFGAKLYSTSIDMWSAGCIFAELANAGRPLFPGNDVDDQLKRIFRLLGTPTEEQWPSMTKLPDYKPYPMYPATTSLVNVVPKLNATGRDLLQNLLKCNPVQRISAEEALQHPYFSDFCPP
T1 sequence (Q15078 whole entry partner): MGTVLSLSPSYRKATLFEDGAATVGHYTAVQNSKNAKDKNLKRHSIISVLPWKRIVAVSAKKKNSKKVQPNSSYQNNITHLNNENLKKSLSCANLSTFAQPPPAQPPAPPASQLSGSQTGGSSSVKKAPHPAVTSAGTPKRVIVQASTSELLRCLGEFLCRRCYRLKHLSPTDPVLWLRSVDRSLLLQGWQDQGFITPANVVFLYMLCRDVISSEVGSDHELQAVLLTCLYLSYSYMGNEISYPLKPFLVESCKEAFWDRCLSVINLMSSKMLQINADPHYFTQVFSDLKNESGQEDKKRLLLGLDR
Method: (§1) CDK2/Cyclin E kinase was produced in Sf9 insect cells via baculoviral infection and purified on a NiNTA column (Qiagen). CDK5/p35, CDK7Cyclin H/MAT1 and CDK9/Cyclin T1 was purchased from ProQinase GmbH. The kinase reactions were assayed with 1 mg/mL histone H1 (for CDK2 and CDK5) or (YSPTSPS)2KK peptide (for CDK7 and CDK9) in the presence of 15/0.15/1.5/1.5 μM ATP (for CDK2/CDK5/CDK7CDK9), 0.05 μCi [γ-^33P]ATP and of the test compound in a final volume of 10 μL, all in a reaction buffer (60 mM HEPES-NaOH, pH 7.5, 3 mM MgCl2, 3 mM MnCl2, 3 μM Na-orthovanadate, 1.2 mM DTT, 2.5 μg/50 μl PEG20,000). The reactions were stopped by adding 5 μL of 3% aq H3PO4. Aliquots were spotted onto P-81 phosphocellulose (Whatman), washed 3× with 0.5% aq H3PO4 and finally air-dried.
(§2) CDK1/cyclin B and CDK2/cyclin E kinases were produced in Sf9 insect cells via baculoviral infection, while CDK5/p35, CDK7/cyclin H/MAT1, and CDK9/cyclin T1 were purchased from ProQinase (Freiburg, Germany) and assayed as described previously (35). The kinase reactions were assayed with 1 mg/ml histone H1 (for CDK2 and CDK5) or (YSPTSPS)2KK peptide (for CDK7 and CDK9) in the presence of 15/0.15/1.5/1.5 […] ATP (for CDK2/CDK5/CDK7CDK9), […] [γ-^33P]ATP and of the test compound in a final volume of […]. The reaction buffer contained 60 mM HEPES-NaOH, pH 7.5, 3 mM MgCl2, 3 mM MnCl2, 3 mM Na-orthovanadate, 1.2 mM DTT, 2.5 mg/50 ml PEG20.000. The reactions were stopped by adding […] of 3% H3PO4. Aliquots were spotted onto P-81 phosphocellulose (Whatman, GE Healthcare Biosciences, Pittsburgh, USA), washed 3 times with 0.5% H3PO4 and finally air-dried. Kinase inhibition was quantified using a FLA-7000 digital image analyzer (Fujifilm, Tokyo, Japan).

CDK9/Cyclin T1 = biological target: T2, CDK9/Cyclin T1 (Homo sapiens, UniProt P50750); assay: as above; format: biochemical; conditions: read-out: Residual kinase activity, CDK9; for remaining activity at 0.1 µM: 100 nM; for remaining activity at 1 µM: 1000 nM
T2 construct: purchased ProQinase GmbH (Freiburg, Germany)
T2 sequence (P50750 whole entry): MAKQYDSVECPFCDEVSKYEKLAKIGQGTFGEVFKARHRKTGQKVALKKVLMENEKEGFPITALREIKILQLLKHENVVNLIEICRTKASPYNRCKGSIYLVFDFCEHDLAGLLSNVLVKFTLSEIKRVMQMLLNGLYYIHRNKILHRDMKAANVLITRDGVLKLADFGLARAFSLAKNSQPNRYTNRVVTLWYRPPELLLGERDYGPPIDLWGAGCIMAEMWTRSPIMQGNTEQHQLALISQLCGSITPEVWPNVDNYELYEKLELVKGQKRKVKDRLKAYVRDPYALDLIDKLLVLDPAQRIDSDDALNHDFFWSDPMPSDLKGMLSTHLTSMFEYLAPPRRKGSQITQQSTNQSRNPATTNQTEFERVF
T2 sequence (O60563 whole entry partner): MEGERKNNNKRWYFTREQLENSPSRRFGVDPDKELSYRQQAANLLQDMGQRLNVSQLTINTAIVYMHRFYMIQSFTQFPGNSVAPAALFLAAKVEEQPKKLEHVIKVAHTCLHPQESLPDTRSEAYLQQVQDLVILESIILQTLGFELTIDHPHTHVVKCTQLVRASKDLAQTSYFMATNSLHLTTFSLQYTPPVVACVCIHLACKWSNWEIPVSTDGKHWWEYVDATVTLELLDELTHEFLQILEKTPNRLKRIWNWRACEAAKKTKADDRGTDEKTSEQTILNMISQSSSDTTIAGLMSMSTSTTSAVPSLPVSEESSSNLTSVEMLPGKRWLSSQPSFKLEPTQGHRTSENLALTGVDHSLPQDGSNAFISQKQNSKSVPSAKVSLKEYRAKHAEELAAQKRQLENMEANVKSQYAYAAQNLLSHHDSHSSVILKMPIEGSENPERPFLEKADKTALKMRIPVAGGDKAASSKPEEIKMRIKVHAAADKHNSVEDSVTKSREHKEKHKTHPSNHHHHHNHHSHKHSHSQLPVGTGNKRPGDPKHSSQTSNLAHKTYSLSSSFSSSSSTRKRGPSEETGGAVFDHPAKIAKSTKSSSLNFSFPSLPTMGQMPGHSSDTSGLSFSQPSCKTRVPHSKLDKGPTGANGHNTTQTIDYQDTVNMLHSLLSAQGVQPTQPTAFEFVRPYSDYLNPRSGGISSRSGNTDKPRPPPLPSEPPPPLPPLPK
Method: as §1, §2

CDK7/cyclin H/MAT1 = biological target: T3, CDK7/cyclin H/MAT1 (Homo sapiens, UniProt P50613); assay: as above; format: biochemical; conditions: read-out: Residual kinase activity, CDK7; for remaining activity at 0.1 µM: 100 nM; for remaining activity at 1 µM: 1000 nM
T3 construct: purchased ProQinase GmbH (Freiburg, Germany)
T3 sequence (P50613 whole entry): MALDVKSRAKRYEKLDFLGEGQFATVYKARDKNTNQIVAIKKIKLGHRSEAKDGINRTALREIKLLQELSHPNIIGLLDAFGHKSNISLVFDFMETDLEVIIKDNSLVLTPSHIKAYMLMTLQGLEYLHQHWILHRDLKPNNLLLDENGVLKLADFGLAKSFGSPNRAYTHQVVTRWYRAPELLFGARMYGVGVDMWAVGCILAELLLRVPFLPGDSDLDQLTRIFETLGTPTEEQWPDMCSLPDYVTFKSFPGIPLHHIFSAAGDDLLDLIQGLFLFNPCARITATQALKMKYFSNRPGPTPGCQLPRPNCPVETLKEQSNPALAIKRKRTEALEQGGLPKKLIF
T3 sequence (P51946 whole entry partner): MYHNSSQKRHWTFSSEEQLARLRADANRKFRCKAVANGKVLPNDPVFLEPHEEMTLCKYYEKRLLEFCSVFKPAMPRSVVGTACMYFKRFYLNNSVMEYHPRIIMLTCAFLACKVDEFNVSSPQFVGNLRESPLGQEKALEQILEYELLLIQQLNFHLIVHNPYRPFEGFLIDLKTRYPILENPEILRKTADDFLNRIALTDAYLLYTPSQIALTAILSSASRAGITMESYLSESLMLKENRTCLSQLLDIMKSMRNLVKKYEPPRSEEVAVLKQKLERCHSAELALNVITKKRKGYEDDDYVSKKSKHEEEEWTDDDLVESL
T3 sequence (P51948 whole entry partner): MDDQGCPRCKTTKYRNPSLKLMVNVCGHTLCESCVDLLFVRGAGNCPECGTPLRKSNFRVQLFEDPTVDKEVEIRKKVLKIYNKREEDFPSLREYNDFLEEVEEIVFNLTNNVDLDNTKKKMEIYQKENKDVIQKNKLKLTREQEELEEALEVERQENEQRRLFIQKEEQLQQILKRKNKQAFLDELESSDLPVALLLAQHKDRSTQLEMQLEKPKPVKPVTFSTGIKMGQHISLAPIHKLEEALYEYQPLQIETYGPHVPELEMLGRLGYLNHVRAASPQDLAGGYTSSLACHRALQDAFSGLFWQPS
Method: as §1, §2

Hep3B = assay: MTT cytotoxicity assay (Example 30); format: cell-based, human; conditions: Homo sapiens, Hep3B, 72 h; MTT, three days after drug addition; read-out: Inhibitory concentration IC50, Hep3B
[2] = tested on: human umbilical vein endothelial cells (HUVECs); assay: Migration scratch assay; format: cell-based; parameters: key to Wound area: ++: open; +: partly open; 0: closed; conditions: for Wound area: 24 h; for inhibition of migration (in words): 24 h treatment
Method: Migration assay was performed as described previously (Krystof et al., 2011, Eur J Med Chem.; 46(9):4289-94). Briefly, confluent HUVECs were scratched and immediately treated for 24 h with various doses of compounds. After incubation each well was photographed using a DP Controller system (Olympus) connected to a Olympus BX50 microscope. Migration was expressed as the proportion of pixels of the wound area in the image that were not covered by cells using “in house” software.

SMILES	IC50 (HCC-1.2 (3p))	IC50 (PLC/PRF/5)	IC50 (HCC-1.1 (3sp))	IC50 (HUH-7)	IC50 ([1]; 24 h)	IC50 ([1]; 72 h)	remaining activity at 0.1 µM (CDK5/p35)	remaining activity at 1 µM (CDK5/p35)	remaining activity at 0.1 µM (CDK9/Cyclin T1)	remaining activity at 1 µM (CDK9/Cyclin T1)	remaining activity at 0.1 µM (CDK7/cyclin H/MAT1)	remaining activity at 1 µM (CDK7/cyclin H/MAT1)	IC50 (Hep3B)	Wound area ([2]; 100 nM)	Wound area ([2]; 1000 nM)	inhibition of migration (in words) ([2]; 100 nM)
NC1CCC(Nc2nc(NCc3ccc(-c4cccc(F)c4)nc3)c3ncn(C4CCCC4)c3n2)CC1 (centres unmarked) [BP19, N^2-(4-amino-cyclohexyl)-9-cyclopentyl-N^6-[6-(3-fluoro-phenyl)-pyridin-3-ylmethyl]-9H-purine-2,6-diamine]	191 nM	9 nM	410 nM	281 nM	21800 nM	370 nM	37.7%	25.6%	26.6%	0.83%	55%	25%	85 nM	+	++	
NC1CCC(Nc2nc(NCc3ccc(-c4ccccc4O)nc3)c3ncn(C4CCCC4)c3n2)CC1 (centres unmarked) [BP20, N^2-(4-amino-cyclohexyl)-9-cyclopentyl-N^6-[6-(2-hydroxy-phenyl)-pyridin-3-ylmethyl]-9H-purine-2,6-diamine]	132 nM	7 nM	197 nM	182 nM	29200 nM	570 nM	47.6%	19.4%	21.1%	0.59%	48%	17.3%	32 nM	++	++	Significant inhibition of migration
NC1CCC(Nc2nc(NCc3ccc(-c4cccs4)nc3)c3ncn(C4CCCC4)c3n2)CC1 (centres unmarked) [BP30, N^2-(4-amino-cyclohexyl)-9-cyclopentyl-N^6-(6-thiophen-2-yl-pyridin-3-ylmethyl)-9H-purine-2,6-diamine]	205 nM	15 nM	476 nM	184 nM	20400 nM	80 nM	26%	4.31%	19.6%	1.78%	47.7%	16.5%	77 nM	++	++	Significant inhibition of migration
NC1CCC(Nc2nc(NCc3ccc(-c4ccsc4)nc3)c3ncn(C4CCCC4)c3n2)CC1 (centres unmarked) [BP35, N^2-(4-amino-cyclohexyl)-9-cyclopentyl-N^6-(6-thiophen-3-yl-pyridin-3-ylmethyl)-9H-purine-2,6-diamine]	218 nM	37 nM	328 nM	257 nM	> 50000 nM	180 nM	65%	8.7%	32.8%	2.39%	64.1%	33.5%	207 nM	0	++	
NC1CCC(Nc2nc(NCc3ccc(-c4ccoc4)nc3)c3ncn(C4CCCC4)c3n2)CC1 (centres unmarked) [BP36, N^2-(4-amino-cyclohexyl)-9-cyclopentyl-N^6-(6-furan-3-yl-pyridin-3-ylmethyl)-9H-purine-2,6-diamine]	258 nM	18 nM	424 nM	332 nM	20800 nM	190 nM	31.9%	2.95%	15.4%	1.68%	49.1%	17.3%	130 nM	+	++	
